Values of other authors in US20190282591A1, “FINASTERIDE AND SILDENAFIL COMPOSITIONS AND APPLICATIONS” (BLUE GOOSE DRUGS INC., priority 2018, published 2019).
Values belong to the compound of their own block, whether it stands above or below them.

How the values were obtained:
[1] = active metabolite accounts for about one-half
[2] = test system: dihydrotestosterone (DHT) levels
[3] = biological target: T1, 5α-reductase type I isoenzyme (Homo sapiens, UniProt P18405); settings: 5α-reductase type I vs type II
T1 sequence (P18405 1-259): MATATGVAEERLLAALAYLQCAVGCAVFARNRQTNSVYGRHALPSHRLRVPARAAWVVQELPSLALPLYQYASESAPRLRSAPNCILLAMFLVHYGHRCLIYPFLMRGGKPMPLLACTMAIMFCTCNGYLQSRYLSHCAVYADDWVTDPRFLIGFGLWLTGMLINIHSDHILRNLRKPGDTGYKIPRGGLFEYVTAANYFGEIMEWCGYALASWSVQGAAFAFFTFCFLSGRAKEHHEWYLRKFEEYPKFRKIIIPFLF

5β-reductase (AKR1D1) = biological target: T2, 5β-reductase (AKR1D1) (Homo sapiens, UniProt P51857); settings: compared with 5α-reductase type I
T2 sequence (P51857 1-326): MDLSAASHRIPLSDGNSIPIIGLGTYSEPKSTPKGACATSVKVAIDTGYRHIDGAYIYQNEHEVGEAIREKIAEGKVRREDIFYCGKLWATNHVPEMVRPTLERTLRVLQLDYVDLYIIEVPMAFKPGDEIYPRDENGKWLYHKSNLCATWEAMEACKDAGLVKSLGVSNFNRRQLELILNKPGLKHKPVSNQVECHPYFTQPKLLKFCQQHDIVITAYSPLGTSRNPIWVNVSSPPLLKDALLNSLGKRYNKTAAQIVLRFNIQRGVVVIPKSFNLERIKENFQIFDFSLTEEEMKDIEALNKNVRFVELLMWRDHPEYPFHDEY

SMILES: CCCc1nn(C)c2c(=O)[nH]c(-c3cc(S(=O)(=O)N4CCN(C)CC4)ccc3OCC)nc12.O=C(O)CC(O)(CC(=O)O)C(=O)O [Sildenafil citrate, 5-[2-ethoxy-5-(4-methylpiperazin-1-yl)sulfonylphenyl]-1-methyl-3-propyl-4H-pyrazolo[4,3-d]pyrimidin-7-one; 2-hydroxypropane-1,2,3-tricarboxylic acid]
- bioavailability after oral administration [1]: 40%

SMILES: C[C@]12C=CC(=O)N[C@@H]1CC[C@@H]1[C@@H]2CC[C@]2(C)[C@@H](C(=O)Nc3cc(C(F)(F)F)ccc3C(F)(F)F)CC[C@@H]12 [dutasteride]
- reduction of DHT levels in the entire body ([2]; entire body): more than 99%

- less inhibitory potency for type I as compared to type II [3]: more than 100 fold
SMILES: CC(C)(C)NC(=O)[C@H]1CC[C@H]2[C@@H]3CC[C@H]4NC(=O)C=C[C@]4(C)[C@H]3CC[C@]12C [finasteride, (5α,17β)-N-(1,1-dimethylethyl)-3-oxo-4-azaandrost-1-ene-17-carboxamide]
- decrease in prostate DHT levels ([2]; prostate, where type II isoenzyme predominates): 85 to 90%
- decrease in serum DHT levels ([2]; serum): 65 to 70%
- affinity for 5β-reductase relative to 5α-reductase (5β-reductase (AKR1D1)): an order of magnitude less than 5α-reductase type I
